{"source": "patent US6423696B1", "about": "“Inhibition of arylamine N-acetyl transferase” (The United States of America, as represented by the …, priority 1999, dated 2002)", "key": {"[1]": {"molecular_target": "T1, NAT-2 (Homo sapiens, UniProt P11245)", "T1 sequence (P11245 1-290)": "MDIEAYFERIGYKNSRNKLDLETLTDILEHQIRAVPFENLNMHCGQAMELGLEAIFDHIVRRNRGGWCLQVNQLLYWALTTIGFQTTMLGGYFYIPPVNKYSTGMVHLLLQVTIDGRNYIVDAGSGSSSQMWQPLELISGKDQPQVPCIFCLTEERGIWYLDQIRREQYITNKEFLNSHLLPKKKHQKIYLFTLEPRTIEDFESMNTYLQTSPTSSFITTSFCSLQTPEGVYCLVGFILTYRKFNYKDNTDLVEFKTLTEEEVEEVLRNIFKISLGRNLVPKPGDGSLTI", "assay": "Acetylation in human liver subcellular preparation (cytosol), NAT-2 substrates, cross inhibition", "assay_type": "biochemical", "parameters": "from tissue; host or cells: human liver cytosol (105,000 g supernatant); key to inhibition of acetylation of substrate DDS / inhibition of acetylation of substrate SMZ / inhibition of acetylation of substrate INH: ++ = strong inhibition; −− = no inhibition", "settings": "for formation of acetylated metabolite, substrate incubated alone: incubated separately with human liver cytosol", "experimental": "The reaction was terminated by the addition of perchloric acid to a final concentration of 1.5%.\nINH, DDS, SMZ were incubated with human liver subcellular preparations as described in Example 1. The reactions were allowed to proceed for thirty minutes at 37° C. before termination by addition of perchloric acid. […] For INH, 1-octanesulfonic acid (5 mM) was added to the mobile phase."}, "[2]": {"molecular_target": "T1, NAT-2", "assay": "Acetylation in human hepatocyte culture, NAT-2 substrates", "assay_type": "cell-based", "settings": "human hepatocytes", "experimental": "INH, DDS and SMZ were incubated with human hepatocytes as described in Example 1. Parallel cultures were conducted for each drug alone and each drug plus dichlorphenamide as a potential inhibitor. An additional culture of DDS was incubated with SMZ, a potential inhibitor. […] In addition, SMZ inhibited acetylation of DDS."}, "[3]": {"molecular_target": "T2, NAT-1 (Homo sapiens, UniProt P18440)", "T2 sequence (P18440 1-290)": "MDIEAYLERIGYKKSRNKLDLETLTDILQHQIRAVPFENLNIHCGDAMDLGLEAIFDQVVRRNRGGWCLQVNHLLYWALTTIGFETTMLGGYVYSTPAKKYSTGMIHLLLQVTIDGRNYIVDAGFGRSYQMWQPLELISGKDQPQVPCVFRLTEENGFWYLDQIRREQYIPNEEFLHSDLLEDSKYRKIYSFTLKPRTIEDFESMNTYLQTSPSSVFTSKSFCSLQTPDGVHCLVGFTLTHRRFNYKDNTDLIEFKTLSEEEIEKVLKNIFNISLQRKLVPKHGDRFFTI", "assay": "Acetylation in human liver subcellular preparation (cytosol), NAT-1 substrates, HPLC of N-acetylated metabolites", "experimental": "Human liver was homogenized and prepared by high-speed differential centrifugation. A preliminary centrifugation was performed at 13,000 g for 20 min.\nThe formation of N-acetylated metabolites was quantified by HPLC. Samples from the incubates were injected onto a reverse-phase column (e.g., Waters Symmetry C18, 5 micron, 4.6×150 mm). […] Drugs and their N-acetylated metabolites were quantitated by UV absorption using a diode-array detector.\nThe substrates assayed above were then co-incubated with human liver subcellular preparations."}, "[4]": {"molecular_target": "T2, NAT-1", "settings": "human volunteer", "experimental": "On the fourth and fifth days, PAS was also administered at its standard dose of 4 g every 8 hours."}, "[5]": {"molecular_target": "T2, NAT-1", "settings": "4 hours", "quoted_text": "Human hepatocytes were incubated at 37° C. at a ratio of 1 million cells per ml in modified Williams E buffer. Either cryopreserved hepatocytes in suspension or freshly-isolated hepatocytes attached to microtiter plates were used. The reaction was initiated by addition of substrate, and terminated after 4 hours by the addition of perchloric acid. As before, parallel incubations were conducted for drug alone versus drug plus potential inhibitors. Percent inhibition was calculated from the ratio of [Acetylated metabolite]/[parent] with and without the potential inhibitor."}, "[6]": {"settings": "human liver cytosol, 30 min, 37° C."}}, "note": "Read-outs that look alike come from different tables or passages of the source."}
{"smiles": "CCC1(c2ccc(N)cc2)CCC(=O)NC1=O", "note": "(stereo not shown) [AG, aminoglutethimide]", "values": [{"measurement": "inhibition of acetylation of substrate SMZ", "setting": "[1]; [6]", "value": "++"}]}
{"smiles": "NNC(=O)c1ccncc1", "note": "[INH, isoniazid]", "values": [{"measurement": "formation of acetylated metabolite, substrate incubated alone", "setting": "[1]", "value": "Acetylated metabolites were found"}, {"measurement": "inhibition of acetylation of substrate DDS", "setting": "[1]; [6]", "value": "++"}]}
{"smiles": "Cc1cc(C)nc(NS(=O)(=O)c2ccc(N)cc2)n1", "note": "[SMZ, sulphamethazine]", "values": [{"measurement": "inhibition of acetylation of DDS", "setting": "[2]; substrate DDS", "value": "inhibited"}, {"measurement": "formation of acetylated metabolite, substrate incubated alone", "setting": "[1]", "value": "Acetylated metabolites were found"}, {"measurement": "inhibition of acetylation of substrate DDS", "setting": "[1]; [6]", "value": "++"}]}
{"smiles": "Nc1ccc(S(=O)(=O)c2ccc(N)cc2)cc1", "note": "[DDS, dapsone]", "values": [{"measurement": "formation of acetylated metabolite, substrate incubated alone", "setting": "[1]", "value": "Acetylated metabolites were found"}]}
{"smiles": "NS(=O)(=O)c1cc(Cl)c(Cl)c(S(N)(=O)=O)c1", "note": "[dichlorphenamide]", "values": [{"measurement": "inhibition of acetylation of all substrates (INH, DDS, SMZ)", "setting": "[2]; substrates INH, DDS and SMZ", "value": "strongly inhibited"}, {"measurement": "inhibition of acetylation of substrate DDS", "setting": "[1]; [6]", "value": "++"}, {"measurement": "inhibition of acetylation of substrate INH", "setting": "[1]; substrate INH, human liver cytosol, 30 min, 37° C.", "value": "−−"}, {"measurement": "inhibition of acetylation of substrate SMZ", "setting": "[1]; [6]", "value": "++"}]}
{"smiles": "Nc1ccc(C(=O)O)cc1", "note": "[PABA, para-amino-benzoic acid]", "values": [{"measurement": "inhibition of acetylation to Ac-PAS", "setting": "[3]; 200 μM inhibitor co-incubated with 20 μM PAS, human liver cytosol, 15 min, 37° C.", "value": "no Ac-PAS was detected"}]}
{"smiles": "Nc1ccc(C(=O)O)c(O)c1", "note": "[PAS, para-amino-salicylate]", "values": [{"measurement": "inhibition of acetylation to Ac-PABA", "setting": "[3]; 200 μM inhibitor co-incubated with 20 μM PABA, human liver cytosol, 15 min, 37° C.", "value": "blockage of all measurable acetylation"}, {"measurement": "inhibition of acetylation to Ac-SMX", "setting": "[3]; 200 μM inhibitor co-incubated with 200 μM SMX, human liver cytosol, 15 min, 37° C.", "value": 50, "unit": "%"}, {"measurement": "formation of acetylated metabolite, substrate incubated alone", "setting": "[3]; human liver subcellular preparation, HPLC, FIG. 1", "value": "a single metabolic peak"}, {"measurement": "PAS concentrations in plasma on Day 5", "setting": "[4]; PAS 4 g every 8 hours, HPLC, FIG. 5", "value": "exceed the levels required to inhibit NAT-1"}, {"measurement": "plasma concentration of Ac-SMX, Day 5 (with PAS) vs Day 3 (baseline)", "setting": "[4]; SMX 500 mg every 12 hours for 5 days, PAS 4 g every 8 hours on days 4 and 5, FIG. 2", "value": "almost completely abolished"}, {"measurement": "reduction of Ac-SMX formation", "setting": "[5]; 200 μM PAS co-incubated with 200 μM SMX, human hepatocytes", "value": 60, "unit": "%"}, {"measurement": "formation of acetylated metabolite, substrate incubated alone", "setting": "[5]; 200 μM incubated separately with human hepatocytes", "value": "formation of Ac-PAS and Ac-SMX"}]}
